Test results taken from patent publication US20060270880A1, “7-Azaindole derivatives as cox2 inhibitors” (priority 2003, published 2006).

Target: T1, microsomal h-COX2 (Homo sapiens, UniProt P35354)
T1 construct: made in house; host or cells: baculovirus infected SF9 cells (microsomal preparation)
T1 sequence (P35354 18-604): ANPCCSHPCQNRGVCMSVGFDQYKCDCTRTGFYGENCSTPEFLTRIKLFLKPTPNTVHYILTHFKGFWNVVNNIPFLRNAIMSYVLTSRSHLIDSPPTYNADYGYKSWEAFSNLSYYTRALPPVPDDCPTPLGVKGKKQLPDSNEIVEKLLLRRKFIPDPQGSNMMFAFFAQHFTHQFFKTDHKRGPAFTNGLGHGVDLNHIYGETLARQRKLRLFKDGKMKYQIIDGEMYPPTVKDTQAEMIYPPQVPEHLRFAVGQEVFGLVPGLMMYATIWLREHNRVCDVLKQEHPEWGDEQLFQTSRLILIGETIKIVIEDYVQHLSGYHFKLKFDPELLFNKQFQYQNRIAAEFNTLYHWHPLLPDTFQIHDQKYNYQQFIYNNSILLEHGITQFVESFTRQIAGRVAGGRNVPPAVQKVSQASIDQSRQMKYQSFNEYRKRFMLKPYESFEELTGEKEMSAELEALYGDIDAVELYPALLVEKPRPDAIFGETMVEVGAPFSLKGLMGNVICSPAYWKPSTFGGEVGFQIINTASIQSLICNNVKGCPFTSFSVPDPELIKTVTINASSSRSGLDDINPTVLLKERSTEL
Assay: Microsomal assay: inhibition of microsomal h-COX2 (PGE2 by EIA)
Type: biochemical
Conditions: microsomal preparation from baculovirus infected SF9 cells; 1 hour preincubation; 0.1 μM arachidonic acid, 10 minutes; read-out: IC50 values for inhibition of COX-2
Experimental: Inhibitory activity against microsomal h-COX2 was assessed against a microsomal preparation from baculovirus infected SF9 cells. An aliquot of microsomal preparation was thawed slowly on ice and a 1/40,000 dilution prepared from it into the assay buffer (sterile water, degassed with argon containing 100 mM HEPES (pH 7.4), 10 mM EDTA (pH7.4), 1 mM phenol, 1 mM reduced glutathione, 20 mg/ml gelatin and 0.001 mM Hematin). Once diluted the enzyme solution was then sonicated for 5 seconds (Branson sonicator, setting 4, 1 cm tip) to ensure a homogeneous suspension. 155 μl enzyme solution was then added to each well of a 96-well microtitre plate containing either 5 μl test und (40× required test concentration) or 5 μl DMSO for controls. Plates were then mixed and incubated at room temperature for 1 hour. Following the incubation period, 40 μl of 0.5 μM arachidonic acid was added to each well to give a final concentration of 0.1 μM. Plates were then mixed and incubated for exactly 10 minutes (room temperature) prior to addition of 25 μl 1M HCl (hydrochloric acid) to each well to stop the reaction. 25 μl of 1M NaOH (sodium hydroxide) was then added to each well to neutralise the solution prior to determination of PGE2 levels by enzyme immunoassay (EIA).

Row | SMILES | IC50 [nM]
1 | CCC(CC)Cn1ccc2ccc(-c3ccc(S(C)(=O)=O)cc3)nc21 [Example 10] | ≤ 500
2 | Cc1cn(CC2CCCCC2)c2nc(-c3ccc(S(C)(=O)=O)cc3)ccc12 [Example 6, 1-{cyclohexanemethyl)-3-methyl-6-[4-(methylsulfonyl)phenyl]-7-azaindole] | ≤ 500
3 | CS(=O)(=O)c1ccc(-c2ccc3ccn(S(=O)(=O)c4ccccc4)c3n2)cc1 [Example 9] | ≤ 500
4 | CS(=O)(=O)c1ccc(-c2ccc3c(C=O)cn(CC4CCCCC4)c3n2)cc1 [Example 4, 1-(cyclohexanemethyl)-6-[4-(methylsulfonyl)phenyl]-7-azaindole-3-carboxaldehyde] | ≤ 500
5 | CS(=O)(=O)c1ccc(-c2ccc3ccn(Cc4ccccc4)c3n2)cc1 [Example 12] | ≤ 500
6 | CC(C)Cc1cn(CC2CCCCC2)c2nc(-c3ccc(S(C)(=O)=O)cc3)ccc12 [Example 3, 1-(cyclohexanemethyl)-3-(2-methylprop-1-yl)-6-[4-(methylsulfonyl)phenyl]-7-azaindole] | ≤ 500
7 | CS(=O)(=O)c1ccc(-c2ccc3ccn(CC4CCCCC4)c3n2)cc1 [Example 1, 1-(cyclohexanemethyl)-6-[4-(methylsulfonyl)phenyl]-7-azaindole] | ≤ 500
8 | CS(=O)(=O)c1ccc(-c2ccc3ccn(Cc4cccnc4)c3n2)cc1 [Example 14] | ≤ 500
9 | CS(=O)(=O)c1ccc(-c2ccc3ccn(Cc4ccc(Cl)cc4)c3n2)cc1 [Example 18] | ≤ 500
10 | CS(=O)(=O)c1ccc(-c2ccc3ccn(-c4ccc(F)cc4)c3n2)cc1 [Example 13] | ≤ 500
11 | CS(=O)(=O)c1ccc(-c2ccc3ccn(Cc4ccncc4)c3n2)cc1 [Example 15] | ≤ 500
12 | CS(=O)(=O)c1ccc(-c2ccc3ccn(-c4ccccc4)c3n2)cc1 [Example 2, 1-Phenyl-6-[4-(methylsulfonyl)phenyl]-7-azaindole] | ≤ 500
13 | CS(=O)(=O)c1ccc(-c2ccc3ccn(Cc4ccccn4)c3n2)cc1 [Example 16] | ≤ 500
